Results taken from ChEMBL document CHEMBL1201862, “PubChem BioAssay data set” (2004).
Calls of active or inactive are those of the source.

Columns and labels:
[1] = molecular target: T1, G-protein coupled receptor 35 (Homo sapiens, UniProt Q9HC97); assay: SAR analysis of Agonists of the GPR35 Receptor using an Image-Based Assay - Set 2. [Related pubchem assays (depositor defined):AID2013, AID2026]; format: functional
[2] = cytotoxicity toward NIH3T3 fibroblasts, dose response, counter-screen, cell-based, ATP luminescence, mouse fibroblasts (AID 2010); format: functional;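 further: cells exposed to compound for about 90 hours before reading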
[3] = molecular target: T2, Cannabinoid receptor 2 (Homo sapiens, UniProt P34972); assay: SAR analysis of agonists of the Cannabinoid Receptor 2 using an Image-Based Assay. [Related pubchem assays (depositor defined):AID2013, AID2026]; format: functional
[4] = growth suppression of beta-catenin-knockout colon cells, dose response, cell-based, HCT116, human colon tumor (AID 1045); format: functional;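 further: HCT116 colon tumor cells with beta catenin knocked out; cells exposed to compound for 60 hours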
[5] = molecular target: T1, G-protein coupled receptor 35; assay: SAR analysis of Antagonists of the GPR35 Receptor using an Image-Based Assay - Set 3. [Related pubchem assays (depositor defined):AID2013, AID2026]; format: functional
[6] = growth suppression of PTEN-null colon cells, dose response, cell-based, HCT116 PTEN knockout (AID 1047); format: functional;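 further: HCT116 colon tumor cells with PTEN knocked out; cells exposed to compound for 60 hours before readout; potency for loss of cell viability measured by luminescence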
[7] = A Cell Based Secondary Assay To Explore Cytotoxicity of Compounds that Sensitize Mycobacterium Tuberculosis to Beta-Lactam Antibiotics.; format: functional
[8] = molecular target: Cytochrome P450 2C9 (Homo sapiens, UniProt P11712)
[9] = molecular target: T3, Cannabinoid receptor 1 (Homo sapiens, UniProt P21554); assay: SAR analysis of antagonists of the Cannabinoid Receptor 1 using an Image-Based Assay - Set 2. [Related pubchem assays (depositor defined):AID2013, AID2026]; format: functional
[10] = molecular target: T4, G-protein coupled receptor 55 (Homo sapiens, UniProt Q9Y2T6); assay: GPR55 antagonist potency of analogs, SAR follow-up, imaging, U2OS, beta-arrestin-GFP, LPI agonist, set 2 (AID 2820); format: functional
[11] = molecular target: T4, G-protein coupled receptor 55; assay: GPR55 antagonists blocking LPI-driven arrestin recruitment, primary screen, imaging, U2OS, beta-arrestin-GFP, LPI agonist (AID 2013); format: functional;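 further: antagonist potency measured as reduced agonist-driven arrestin aggregation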
[12] = molecular target: T2, Cannabinoid receptor 2; assay: SAR analysis of antagonists of the Cannabinoid Receptor 2 using an Image-Based Assay. [Related pubchem assays (depositor defined):AID2013, AID2026]; format: functional
[13] = inhibitors of intracellular T. cruzi replication, confirmation, NIH3T3 host cells, beta-gal luminescence (AID 2044); format: functional, cell-based;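 further: intracellular parasites grown in NIH/3T3 mouse fibroblasts as host cells; luminescent beta-galactosidase reporter signal from transgenic T. cruzi replicating inside host cells; inhibitors lower the luminescence signal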
[14] = molecular target: T3, Cannabinoid receptor 1; assay: SAR analysis of agonists of the Cannabinoid Receptor 1 using an Image-Based Assay - Set 2. [Related pubchem assays (depositor defined):AID2013, AID2026]; format: functional
[15] = molecular target: T5, Kappa-type opioid receptor (Homo sapiens, UniProt P41145); format: functional
[16] = molecular target: T5, Kappa-type opioid receptor; format: functional; remark: listed apart in the source
[17] = system: Streptococcus sp. 'group A'; assay: growth inhibition of control SK(-) GAS strain, dose response, counter-screen for streptokinase expression inhibitor project, luminescence, kanamycin, BacTiterGlo, confirmation (AID 1900); format: functional, organism-based
[18] = molecular target: Beta-galactosidase (Escherichia coli, UniProt Q8VNN2); format: functional
[19] = molecular target: T6, Delta-type opioid receptor (Homo sapiens, UniProt P41143); assay: HTS Image-Based Screen for Agonists of the DOR Receptor. [Related pubchem assays (depositor defined):AID1777, AID1786, AID2133]; format: functional
[20] = molecular target: Voltage-gated inwardly rectifying potassium channel KCNH2 (Homo sapiens, UniProt Q12809); assay: hERG protection from proarrhythmic block, potency, dose response, cell-based, thallium flux (AID 2121); format: ADME
[21] = molecular target: Mu-type opioid receptor (Homo sapiens, UniProt P35372); assay: HTS Image-Based Screen for Agonists of the MOR Receptor. [Related pubchem assays (depositor defined):AID1777, AID1785, AID1786, AID2133]; format: functional;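 further: imaging of beta-arrestin GFP recruitment into spots after receptor activation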
[22] = system: Streptococcus; assay: Group A Streptococcus viability loss, dose response, counter-screen for streptokinase expression inhibitor project, luminescence, BacTiterGlo (AID 1915); format: functional, organism-based;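 further: potency for reduction of bacterial viability or growth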
[23] = molecular target: T6, Delta-type opioid receptor; assay: HTS Image-Based Screen for Antagonists of the DOR Receptor. [Related pubchem assays (depositor defined):AID1777, AID1785, AID1786, AID2133]; format: functional
[24] = molecular target: T7, Heat shock factor protein 1 (Mus musculus, UniProt P38532); assay: inhibition of MG132-induced HSE-luciferase signal, confirmation, cell-based, NIH3T3, luminescence, dose retest (AID 2382); format: functional;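 further: NIH3T3 fibroblasts with HSF1-driven luciferase reporter stressed by proteasome inhibitor MG132; luminescence from HSF1-driven luciferase expression after 8 hours of MG132 stress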
T7 sequence (P38532 whole entry): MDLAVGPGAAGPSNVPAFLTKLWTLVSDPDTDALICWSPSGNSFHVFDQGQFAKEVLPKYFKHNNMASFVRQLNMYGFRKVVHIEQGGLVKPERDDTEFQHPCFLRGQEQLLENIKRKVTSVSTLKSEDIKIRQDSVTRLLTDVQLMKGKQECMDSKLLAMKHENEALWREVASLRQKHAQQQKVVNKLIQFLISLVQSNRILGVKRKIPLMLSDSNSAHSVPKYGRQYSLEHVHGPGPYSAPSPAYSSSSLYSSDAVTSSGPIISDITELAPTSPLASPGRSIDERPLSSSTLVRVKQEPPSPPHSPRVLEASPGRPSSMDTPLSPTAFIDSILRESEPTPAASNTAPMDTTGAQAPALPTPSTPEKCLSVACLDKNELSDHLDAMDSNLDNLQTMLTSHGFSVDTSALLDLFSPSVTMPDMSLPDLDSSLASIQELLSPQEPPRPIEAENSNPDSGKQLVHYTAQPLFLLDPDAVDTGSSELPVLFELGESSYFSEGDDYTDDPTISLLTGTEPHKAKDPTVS

[25] = Luminescence Cell-Based Dose Retest to Confirm Inhibitors of Cancer Stem Cells. [Related pubchem assays (depositor defined):AID2717, AID2721]; format: functional; conditions: Homo sapiens
[26] = mammalian cell cytotoxicity, dose response, cytotoxicity control, plate reader, cherry-pick samples (AID 504397); format: functional, cell-based

T5 sequence (P41145 whole entry): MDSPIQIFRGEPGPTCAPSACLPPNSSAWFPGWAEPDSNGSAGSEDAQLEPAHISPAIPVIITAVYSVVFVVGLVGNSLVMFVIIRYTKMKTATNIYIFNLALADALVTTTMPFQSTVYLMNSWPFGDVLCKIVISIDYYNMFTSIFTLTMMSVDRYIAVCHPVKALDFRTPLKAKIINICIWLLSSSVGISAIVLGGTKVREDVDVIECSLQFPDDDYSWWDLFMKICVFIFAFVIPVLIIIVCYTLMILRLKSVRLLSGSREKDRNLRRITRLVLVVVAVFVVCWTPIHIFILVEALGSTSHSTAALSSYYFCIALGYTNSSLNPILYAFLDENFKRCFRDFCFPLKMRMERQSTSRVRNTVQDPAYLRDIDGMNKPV
T4 sequence (Q9Y2T6 whole entry): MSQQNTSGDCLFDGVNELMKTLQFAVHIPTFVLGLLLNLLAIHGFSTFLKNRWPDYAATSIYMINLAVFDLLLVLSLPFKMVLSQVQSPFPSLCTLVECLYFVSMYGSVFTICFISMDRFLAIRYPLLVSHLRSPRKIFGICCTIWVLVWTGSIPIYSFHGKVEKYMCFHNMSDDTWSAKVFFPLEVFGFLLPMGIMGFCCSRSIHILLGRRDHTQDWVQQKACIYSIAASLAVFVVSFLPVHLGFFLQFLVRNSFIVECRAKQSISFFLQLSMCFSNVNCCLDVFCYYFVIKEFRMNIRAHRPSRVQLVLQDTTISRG
T2 sequence (P34972 whole entry): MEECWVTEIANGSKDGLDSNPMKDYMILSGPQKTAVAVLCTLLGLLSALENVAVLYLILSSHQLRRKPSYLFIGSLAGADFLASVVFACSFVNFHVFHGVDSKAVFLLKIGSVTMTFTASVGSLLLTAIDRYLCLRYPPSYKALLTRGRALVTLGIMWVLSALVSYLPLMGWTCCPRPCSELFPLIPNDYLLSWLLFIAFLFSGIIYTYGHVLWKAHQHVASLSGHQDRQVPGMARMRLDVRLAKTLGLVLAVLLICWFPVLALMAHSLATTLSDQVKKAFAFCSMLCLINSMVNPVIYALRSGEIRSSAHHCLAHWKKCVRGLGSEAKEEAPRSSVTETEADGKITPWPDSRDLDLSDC
T1 sequence (Q9HC97 whole entry): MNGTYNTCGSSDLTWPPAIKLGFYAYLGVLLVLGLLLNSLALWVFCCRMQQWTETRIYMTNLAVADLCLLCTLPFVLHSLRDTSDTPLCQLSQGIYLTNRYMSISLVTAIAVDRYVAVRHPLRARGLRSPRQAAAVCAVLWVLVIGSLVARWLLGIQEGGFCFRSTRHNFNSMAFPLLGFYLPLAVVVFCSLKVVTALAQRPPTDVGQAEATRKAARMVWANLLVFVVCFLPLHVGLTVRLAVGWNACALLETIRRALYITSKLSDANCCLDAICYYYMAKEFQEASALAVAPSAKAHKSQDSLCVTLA
T3 sequence (P21554 whole entry): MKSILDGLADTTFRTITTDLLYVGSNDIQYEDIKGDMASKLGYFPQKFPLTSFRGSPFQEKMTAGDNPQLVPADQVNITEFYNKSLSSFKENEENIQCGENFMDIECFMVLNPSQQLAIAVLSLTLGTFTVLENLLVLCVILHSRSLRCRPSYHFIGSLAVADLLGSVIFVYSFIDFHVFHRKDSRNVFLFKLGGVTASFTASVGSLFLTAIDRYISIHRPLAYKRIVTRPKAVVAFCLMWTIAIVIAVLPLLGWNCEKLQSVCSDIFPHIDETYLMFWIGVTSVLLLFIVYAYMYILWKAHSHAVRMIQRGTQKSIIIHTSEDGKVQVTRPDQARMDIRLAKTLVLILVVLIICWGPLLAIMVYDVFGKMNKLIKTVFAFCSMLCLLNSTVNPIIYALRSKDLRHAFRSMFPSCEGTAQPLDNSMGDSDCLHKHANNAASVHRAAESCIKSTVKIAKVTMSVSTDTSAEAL
T6 sequence (P41143 whole entry): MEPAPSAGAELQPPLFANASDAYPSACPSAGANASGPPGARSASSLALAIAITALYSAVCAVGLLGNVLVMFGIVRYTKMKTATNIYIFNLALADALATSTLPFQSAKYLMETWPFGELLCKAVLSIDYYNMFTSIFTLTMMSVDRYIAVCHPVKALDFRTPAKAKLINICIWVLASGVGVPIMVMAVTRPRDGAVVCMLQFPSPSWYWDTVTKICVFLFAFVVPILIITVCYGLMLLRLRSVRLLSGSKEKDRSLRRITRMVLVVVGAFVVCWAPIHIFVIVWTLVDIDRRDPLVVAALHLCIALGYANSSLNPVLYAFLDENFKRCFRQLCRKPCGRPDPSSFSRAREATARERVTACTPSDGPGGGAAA
Beta-galactosidase, sequence (Q8VNN2 whole entry): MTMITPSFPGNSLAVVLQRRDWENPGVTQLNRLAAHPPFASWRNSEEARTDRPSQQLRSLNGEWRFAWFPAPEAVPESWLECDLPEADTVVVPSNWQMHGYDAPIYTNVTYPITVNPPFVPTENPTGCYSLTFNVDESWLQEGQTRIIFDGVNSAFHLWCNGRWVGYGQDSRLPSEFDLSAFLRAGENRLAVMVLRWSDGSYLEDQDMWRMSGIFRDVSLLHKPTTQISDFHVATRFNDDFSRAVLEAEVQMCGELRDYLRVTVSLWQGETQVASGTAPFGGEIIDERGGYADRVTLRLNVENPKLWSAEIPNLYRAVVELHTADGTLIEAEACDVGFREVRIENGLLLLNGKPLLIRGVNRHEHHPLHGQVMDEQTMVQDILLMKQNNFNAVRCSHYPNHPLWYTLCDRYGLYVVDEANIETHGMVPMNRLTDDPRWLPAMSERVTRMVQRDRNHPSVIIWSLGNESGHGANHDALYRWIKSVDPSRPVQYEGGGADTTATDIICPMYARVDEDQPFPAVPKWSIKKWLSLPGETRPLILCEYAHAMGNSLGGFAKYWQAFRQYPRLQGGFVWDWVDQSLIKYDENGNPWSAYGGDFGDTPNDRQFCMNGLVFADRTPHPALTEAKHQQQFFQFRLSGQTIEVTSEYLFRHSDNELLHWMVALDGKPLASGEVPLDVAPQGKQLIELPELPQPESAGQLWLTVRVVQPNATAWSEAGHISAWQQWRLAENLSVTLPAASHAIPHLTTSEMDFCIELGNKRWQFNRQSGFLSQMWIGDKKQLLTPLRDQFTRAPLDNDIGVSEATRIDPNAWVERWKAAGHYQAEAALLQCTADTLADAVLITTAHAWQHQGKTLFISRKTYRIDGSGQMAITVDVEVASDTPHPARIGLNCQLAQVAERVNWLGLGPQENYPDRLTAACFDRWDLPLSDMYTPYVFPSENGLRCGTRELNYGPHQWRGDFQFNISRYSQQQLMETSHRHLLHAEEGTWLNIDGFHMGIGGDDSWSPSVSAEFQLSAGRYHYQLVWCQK
Mu-type opioid receptor, sequence (P35372 whole entry): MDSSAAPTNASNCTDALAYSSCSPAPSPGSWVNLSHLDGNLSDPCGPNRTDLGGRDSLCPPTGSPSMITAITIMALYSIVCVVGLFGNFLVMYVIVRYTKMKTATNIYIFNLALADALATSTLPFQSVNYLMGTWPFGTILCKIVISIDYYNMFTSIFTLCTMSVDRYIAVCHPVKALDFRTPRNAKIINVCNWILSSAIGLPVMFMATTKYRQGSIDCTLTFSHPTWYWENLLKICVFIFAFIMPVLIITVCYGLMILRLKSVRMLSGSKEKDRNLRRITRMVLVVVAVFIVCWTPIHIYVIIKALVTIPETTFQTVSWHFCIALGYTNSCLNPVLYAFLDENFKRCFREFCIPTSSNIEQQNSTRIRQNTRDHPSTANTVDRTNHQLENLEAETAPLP
Cytochrome P450 2C9, sequence (P11712 whole entry): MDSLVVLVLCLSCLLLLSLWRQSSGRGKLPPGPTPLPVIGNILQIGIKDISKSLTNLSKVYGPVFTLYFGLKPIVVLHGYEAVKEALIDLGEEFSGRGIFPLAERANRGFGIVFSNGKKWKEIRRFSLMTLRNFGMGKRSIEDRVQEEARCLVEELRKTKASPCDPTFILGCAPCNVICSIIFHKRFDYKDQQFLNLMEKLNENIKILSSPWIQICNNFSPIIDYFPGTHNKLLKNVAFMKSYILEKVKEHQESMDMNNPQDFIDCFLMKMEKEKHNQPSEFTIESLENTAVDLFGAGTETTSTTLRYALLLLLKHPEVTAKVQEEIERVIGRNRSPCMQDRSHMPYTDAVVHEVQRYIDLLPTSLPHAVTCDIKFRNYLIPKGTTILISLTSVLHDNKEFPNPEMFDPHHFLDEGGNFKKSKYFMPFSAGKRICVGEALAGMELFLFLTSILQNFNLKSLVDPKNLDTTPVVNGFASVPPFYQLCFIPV

CC(C)(C)NS(=O)(=O)c1ccc(NC(=O)C(Sc2ccccc2)c2ccccc2)cc1 (configuration not stated)
EC50 [1]: > 32 µM (inactive)
EC50 [2]: > 60 µM (not active)
EC50 [3]: > 32 µM (inactive)
EC50 [4]: 14.7 µM (active)
IC50 [5]: > 32 µM (inactive)
EC50 [6]: 14.5 µM (active)
CC50 [7]: 27.1 µM (active)
AC50 [8]: 2 µM (inconclusive)
IC50 [9]: 2.71 µM (active)
IC50 [10]: 0.978 µM (active)
IC50 [11]: 0.678 µM (active)
IC50 [12]: > 32 µM (inactive)
EC50 [13]: 2.31 µM (active)
EC50 [14]: > 32 µM (inactive)

COc1ccc(/C=C2\SC(=N)N(c3nccs3)C2=O)cc1OC
IC50 [15]: > 32 µM
IC50 [16]: 7.22 µM (active)
EC50 [17]: 1.69 µM (active)
EC50 [18]: > 31.5 µM (inactive)
EC50 [19]: > 32 µM (inactive)
EC50 [20]: 84.7 µM (active)
EC50 [21]: > 32 µM (inactive)
EC50 [22]: 3.61 µM (active)
EC50 [13]: 3.66 µM (active)
IC50 [23]: > 32 µM (inactive)

c1ccc(CNc2nc(N3CCN(Cc4ccccc4)CC3)nc3ccccc23)cc1
EC50 [24]: > 195 µM (not active)
AC50 [25]: 3.43 µM (active)
AC50 [26]: 66.2 µM (active)
